Earlier results on three molecules are cited in US20100144626A1, “Treatment of Multi-Drug Resistant Bacterial Infections” (priority 2006, published 2010).

The conditions of data set [1]: in vivo, cited from earlier work.
The conditions of data set [2]: in vivo; cited from earlier work.
The conditions of data set [3]: in vivo, cited from earlier work. This is another data set of the same source.
Data set [4] has as its system MRSA. Particulars: cited from earlier work.

Values after ≈ are worked out from the molar mass of the structure shown.

`Clc1ccccc1C(c1ccccc1)(c1ccccc1)n1ccnc1` [Clotrimazole, 1-[(2-chlorophenyl)diphenylmethyl]-1H-imidazole]: in data set [1] (po), the “administered dose detected in urine as active drug” value is listed as “Less than 1%” and the half-life entry is given as “around 3 hours”. Moreover, the “absorption following oral administration” value in data set [1] is recorded as “well absorbed”. In addition, in data set [2], the “concentration in the stratum corneum” value was 100 mcg/cm3, the “concentration in the stratum reticulare” value is 0.5-1 mcg/cm3 and the “concentration in the subcutis” value is 0.1 mcg/cm3.
Take `Clc1ccc(COC(Cn2ccnc2)c2ccc(Cl)cc2Cl)cc1` (stereo not shown) [Econazole]: in data set [3] (po), the “tolerability of single oral dose” value was “tolerated”. The number of metabolites result in data set [3] is recorded as “more than 20”.
Regarding `Clc1ccc(COC(Cn2ccnc2)c2ccc(Cl)cc2Cl)c(Cl)c1` (stereo not shown) [Miconazole, 1-[2-(2,4-dichlorophenyl)-2-[(2,4-dichlorophenyl)methoxy]ethyl]-1H-imidazole], the “anti-MRSA activity in presence of lipophilic a-tocopherol (vitamin E)” value in data set [4] (Lee et al. 1999) was “completely suppressed”. In addition, the “minimum inhibitory concentration against MRSA” value in data set [4] (Lee et al., J. Microbiol. Biotechnol. 9 (1999), estimated) is 0.78 µg/mL (≈ 1.87 µM).
